# Laboratory results taken from US20180284123A1, “BARCODED RAPID ASSAY PLATFORM USEFUL FOR EFFICIENT ANALYSIS OF CANDIDATE MOLECULES AND METHODS OF MAKING AND USING THE PLATFORM” (California Institute of Technology, priority 2017, published 2018).
# Numbered stars: 1 amine (or outer) side, 2 acyl side, 3 side chain; on linkers, the order of the positions; unused ones are H or OH. Bridge positions count the residues as written; N and C are the ends. Square brackets hold non-standard residues; d marks the D form. Triazole bridges read from a SMILES are 1,4-linked. Peptide text beside a SMILES is read from it. * marks the point of attachment. Biotin = O=C1N[C@H]2[C@H](CS[C@H]2CCCCC(=O)*)N1; Lys(N3) = [N-]=[N+]=NCCCC[C@H](N)C(=O)O; Ethylenediamine = C(CN[*:2])N[*:1]; PEG5 = NCCOCCOCCOCCOCCOCCC(=O)O; Pra = C#CC[C@H](N)C(=O)O
# Biological target: T1, KRAS (Homo sapiens, UniProt P01116)
# T1 construct: His6-tagged human KRas Isoform 4B (residues 1-169); His6; made in house; host or cells: E. coli BL21(DE3), PQE80 vector
# T1 sequence (P01116 1-169 isoform P01116-2): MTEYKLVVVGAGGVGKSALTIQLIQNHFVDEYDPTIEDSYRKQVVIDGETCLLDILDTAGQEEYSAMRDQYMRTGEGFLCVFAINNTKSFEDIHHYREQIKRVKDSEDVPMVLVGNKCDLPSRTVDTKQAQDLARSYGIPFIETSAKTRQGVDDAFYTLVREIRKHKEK
# Experiment: B-RAP surface immunofluorescent assay, PCC ligand KRas EC50
# Assay type: binding
# Conditions: for Avg F635, Full Centroid / Avg F635, Full Lane / avg F635, Left Part Centroid / avg F635, Middle Part Centroid / avg F635, Right Part Centroid: 10 μM KRas well of plate #1, pixel by pixel; for avg F635, Left Part Centroid: left part of centroid; for avg F635, Middle Part Centroid: middle part of centroid; for avg F635, Right Part Centroid: right part of centroid; for EC50: 13-point KRas concentration series, each point in decaplicate, Hill coefficient=1
# Protocol: The barcode patterned microchip surface was partitioned into 16 individual microwells using a pre-fabricated PDMS slab. Individual biotinylated PCC candidates were complexed to specific SAC-DNA conjugates, combined into a cocktail, and then self-assembled, via DNA hybridization, onto designated barcode stripes (FIGS. 2-4). Incubation with a specific concentration of the target protein preceded incubation with a primary capture antibody and then a fluorophore-conjugated secondary detection antibody. During assay execution, each well represents a different target concentration or assay condition. Once developed, the fluorescence of the barcodes is digitized using a GenePix 4400A array scanner, with an excitation laser power optimized to a power level of 40% (60 W), which maximizes detection sensitivity while also minimizing signal saturation. Data extraction occurs using 10 μm radius circles, taken along the length of a barcode stripe. A fluorescence signal representing the average of all the pixels within a given circle is collected. A total of ten circles (data-blocks) are measured along a 180 μm span of the middle portion for each individual barcode lane in a given well. 10 μM KRas protein gave an average F635 of 47,868.7, with a standard deviation of 4154.53. 1 μM KRas protein gave an average F635 of 11437.6, with a standard deviation of 1602.202. 100 nM KRas protein gave an average F635 of 1780.6, with a standard deviation of 236.38. This illustrates the intensity across a stripe compared to the intensity from the data-block extraction. After extraction the data is background corrected. The background signal arises from (a) non-specific binding of the primary and secondary antibodies (independent of [KRas]), but can vary across different barcode stripes), and (b) non-specific binding of KRas protein ([KRas] dependent). Background (a) was assessed by measuring the average signal in the null protein well for each stripe. Background (b) was assessed by measuring the average fluorescence for the dummy ligand (Biotin* probe) that was in each well. The background subtracted data was then graphed in Graphpad Prism 7 and fitted to a sigmoidal curve (Hill coefficient=1).
# Measurement of PCC Ligand KRas EC50 with the Barcode Rapid Assay Platform
# Protein Incubation Buffer: Tris-buffered saline (TBS)+0.05% Tween20 (TBST)
# A pre-fabricated PDMS template was aligned onto the DNA barcode microchip, and the microchip was taped into a 10 cm petri dish. The wells on the platform were wet with 50 μL PBST before filling with blocking buffer and placing into a 37° C. incubator for 1 hr. Concurrently, 40 μL 1% BSA in PBS solutions containing 750 nM of a SAC-DNA conjugate and 3.75 μM of one biotinylated PCC ligand or biotin-A20-Cy3 blank were prepared for each SAC-DNA conjugate. The biotinylated ligands were allowed to complex with the SAC protein for one hour before pooling the SAC-DNA-ligand solutions (final [SAC-DNA-ligand conjugates]=50 nM). The blocking buffer was aspirated and each well was loaded with the SAC-DNA-ligand conjugates cocktail for hybridization with the DNA barcode at 37° C. for one hour. The wells were washed with PBST (3×) before loading serially diluted solutions of KRas protein in protein buffer (0 to 400 μM). After shaking at RT for one hour, the wells were rinsed with PBST (5×), making sure to pipet up/down with the first addition of PB ST. A (100:1) dilution of CST rabbit anti-Ras Ab (#39655) in 1° ab buffer was added to each well before shaking at RT for one hour. After rinsing the wells with PBST (3×), the wells were loaded with a (200:1) dilution of Abcam goat anti-rabbit-Alexafluor 647 linked ab (ab150079) in 2° ab buffer before shaking at RT for one hour. A final rinse of the wells with PBST (3×) proceeded peeling off the PDMS slab from the barcode microchip and dipping the barcode into the following solutions: PBS, (1:1) PBS: MQ H2O, MQ H2O (2×). […]
Structure (SMILES),"Avg F635, Full Centroid","Avg F635, Full Lane","avg F635, Left Part Centroid","avg F635, Middle Part Centroid","avg F635, Right Part Centroid",EC50
CC(C)[C@@H]1NC(=O)[C@@H](N)Cc2cn(nn2)CCCC[C@@H](C(=O)NCCOCCOCCOCCOCCOCCC(=O)NCCNC(=O)CCCC[C@@H]2SC[C@@H]3NC(=O)N[C@@H]32)NC(=O)[C@H](Cc2ccc(O)cc2)NC(=O)[C@@H]2CCCN2C(=O)[C@H](C(C)C)NC(=O)[C@H]([C@@H](C)O)NC1=O [Ligand L6] (H-[Pra]VTVPY[Lys(N3)][PEG5]-{Ethylenediamine-Biotin}; triazole 1-7),17836,15968,15645,19382,18546,
"CC(C)[C@@H]1NC(=O)[C@@H](N)Cc2cn(nn2)CCCC[C@@H](C(=O)NCCOCCOCCOCCOCCOCCC(=O)NCCNC(=O)CCCC[C@@H]2SC[C@@H]3NC(=O)N[C@@H]32)NC(=O)[C@H](Cc2ccc(O)cc2)NC(=O)[C@@H]2CCCN2C(=O)[C@H](C(C)C)NC(=O)[C@H](CCC(=O)O)NC1=O (single isomer, unassigned) [Ligand L4a, VEVPY]",11363,10434,10179,11181,12764,9.51 ± 2.2 µM
"CC(C)[C@@H]1NC(=O)[C@@H](N)Cc2cn(nn2)CCCC[C@@H](C(=O)NCCOCCOCCOCCOCCOCCC(=O)NCCNC(=O)CCCC[C@@H]2SC[C@@H]3NC(=O)NC32)NC(=O)[C@H](Cc2ccc(O)cc2)NC(=O)[C@@H]2CCCN2C(=O)[C@H](C(C)C)NC(=O)[C@H](CCC(N)=O)NC1=O (single isomer, unassigned) [Ligand L7a, VQVPY]",36651,32992,32020,37152,40918,4.22 ± 0.71 µM
"CC(C)[C@@H]1NC(=O)[C@H](CCC(=O)O)NC(=O)CNC(=O)[C@@H](N)Cc2cn(nn2)CCCC[C@@H](C(=O)NCCOCCOCCOCCOCCOCCC(=O)NCCNC(=O)CCCC[C@@H]2SC[C@@H]3NC(=O)N[C@@H]32)NC(=O)[C@@H]2CCCN2C(=O)[C@H](C(C)C)NC1=O (single isomer, unassigned) [Ligand L3b, GEVVP]",16158,15157,15070,16390,17046,13.7 ± 4.8 µM
"CC(C)[C@@H]1NC(=O)[C@H](CCC(=O)O)NC(=O)[C@H](C(C)C)NC(=O)[C@@H](N)Cc2cn(nn2)CCCC[C@@H](C(=O)NCCOCCOCCOCCOCCOCCC(=O)NCCNC(=O)CCCC[C@@H]2SC[C@@H]3NC(=O)N[C@@H]32)NC(=O)[C@@H]2CCCN2C(=O)[C@H](Cc2ccc(O)cc2)NC1=O (single isomer, unassigned) [Ligand L5a, VEVYP]",8341,7851,7918,8920,8196,
"CC(C)[C@@H]1NC(=O)[C@@H](N)Cc2cn(nn2)CCCC[C@@H](C(=O)NCCOCCOCCOCCOCCOCCC(=O)NCCNC(=O)CCCC[C@@H]2SC[C@@H]3NC(=O)NC32)NC(=O)[C@H](Cc2ccc(O)cc2)NC(=O)[C@@H]2CCCN2C(=O)[C@H](C(C)C)NC(=O)[C@H](CCC(N)=O)NC1=O (stereo partly shown) [Ligand L7, VQVPY]",53496,48537,48599,54620,57411,
"CC(C)[C@@H]1NC(=O)[C@@H](N)Cc2cn(nn2)CCCC[C@@H](C(=O)NCCOCCOCCOCCOCCOCCC(=O)NCCNC(=O)CCCC[C@@H]2SC[C@@H]3NC(=O)N[C@@H]32)NC(=O)[C@H](Cc2ccc(O)cc2)NC(=O)[C@@H]2CCCN2C(=O)[C@H](C(C)C)NC(=O)[C@H](CCC(=O)O)NC1=O (single isomer, unassigned) [Ligand L4b, VEVPY]",27245,25079,23307,27398,31147,52.2 ± 22 µM
"CC(C)[C@@H]1NC(=O)[C@H](CCC(=O)O)NC(=O)CNC(=O)[C@@H](N)Cc2cn(nn2)CCCC[C@@H](C(=O)NCCOCCOCCOCCOCCOCCC(=O)NCCNC(=O)CCCC[C@@H]2SC[C@@H]3NC(=O)N[C@@H]32)NC(=O)[C@@H]2CCCN2C(=O)[C@H](C(C)C)NC1=O (single isomer, unassigned) [Ligand L3a, GEVVP]",8117,7151,7137,8430,8811,1.49 ± 0.28 µM
"CCC(C)[C@@H]1NC(=O)CNC(=O)[C@H](Cc2cnc[nH]2)NC(=O)[C@@H](N)Cc2cn(nn2)CCCC[C@@H](C(=O)NCCOCCOCCOCCOCCOCCC(=O)NCCNC(=O)CCCC[C@@H]2SC[C@@H]3NC(=O)N[C@@H]32)NC(=O)CNC(=O)[C@H](C(C)C)NC1=O (single isomer, unassigned) [Ligand L1b, HGIVG]",24340,22519,21889,24245,26959,
"CC(C)[C@@H]1NC(=O)[C@H](CCC(=O)O)NC(=O)[C@H](C(C)C)NC(=O)[C@@H](N)Cc2cn(nn2)CCCC[C@@H](C(=O)NCCOCCOCCOCCOCCOCCC(=O)NCCNC(=O)CCCC[C@@H]2SC[C@@H]3NC(=O)N[C@@H]32)NC(=O)[C@@H]2CCCN2C(=O)[C@H](Cc2ccc(O)cc2)NC1=O (single isomer, unassigned) [Ligand L5b, VEVYP]",32390,31581,31947,32789,32448,
"CC(C)[C@@H]1NC(=O)[C@@H](N)Cc2cn(nn2)CCCC[C@@H](C(=O)NCCOCCOCCOCCOCCOCCC(=O)NCCNC(=O)CCCC[C@@H]2SC[C@@H]3NC(=O)NC32)NC(=O)[C@H](Cc2ccc(O)cc2)NC(=O)[C@@H]2CCCN2C(=O)[C@H](C(C)C)NC(=O)[C@H](CCC(N)=O)NC1=O (single isomer, unassigned) [Ligand L7b, VQVPY]",16195,14791,12956,16944,18781,25.3 ± 8.9 µM
